Test results reported in ChEMBL document CHEMBL4359834 (J Med Chem, 2019).
Active and inactive are the calls of the source. The rule behind the calls is not given here.

Columns and labels:
[1] = Inhibition of Class 1 PI3K/mTOR in human A2058 cells assessed as reduction in Akt phosphorylation at Ser473 residue incubated for 1 hr by InCell Western assay; assay type: cell-based; conditions: A2058, 1 h
[2] = target: Phosphatidylinositol 4,5-bisphosphate 3-kinase catalytic subunit alpha isoform (Homo sapiens, UniProt P42336); assay: Displacement of Alexafluor labelled kinase tracer314 from recombinant N-terminal His6-tagged PI3K p110alpha (unknown origin) incubated for 1 hr by FRET-based LanthaScreen Eu kinase binding assay
[3] = target: Serine/threonine-protein kinase mTOR (Homo sapiens, UniProt P42345); assay: Displacement of Alexafluor labelled kinase tracer314 from recombinant human C-terminal GST-tagged mTOR (1360 to 2549 amino acids) expressed in insect cells incubated for 1 hr by FRET-based LanthaScreen Eu kinase binding assay
cells = conditions: Homo sapiens, A2058, 1 h
Description: Inhibition of Class 1 PI3K/mTOR in human A2058 cells assessed as reduction in S6 phosphorylation at Ser235/236 residue incubated for 1 hr by InCell Western assay

A2058 = assay: Antiproliferative activity against human A2058 cells at 5 to 0.02 uM after 72 hrs by […] staining based assay; assay type: functional, cell-based
SK-OV-3 = assay: Antiproliferative activity against human SKOV3 cells at 5 to 0.02 uM after 72 hrs by […] staining based assay; assay type: functional, cell-based

Phosphatidylinositol 4,5-bisphosphate 3-kinase catalytic subunit alpha isoform, sequence (P42336 whole entry, the tested form may be a part, canonical isoform): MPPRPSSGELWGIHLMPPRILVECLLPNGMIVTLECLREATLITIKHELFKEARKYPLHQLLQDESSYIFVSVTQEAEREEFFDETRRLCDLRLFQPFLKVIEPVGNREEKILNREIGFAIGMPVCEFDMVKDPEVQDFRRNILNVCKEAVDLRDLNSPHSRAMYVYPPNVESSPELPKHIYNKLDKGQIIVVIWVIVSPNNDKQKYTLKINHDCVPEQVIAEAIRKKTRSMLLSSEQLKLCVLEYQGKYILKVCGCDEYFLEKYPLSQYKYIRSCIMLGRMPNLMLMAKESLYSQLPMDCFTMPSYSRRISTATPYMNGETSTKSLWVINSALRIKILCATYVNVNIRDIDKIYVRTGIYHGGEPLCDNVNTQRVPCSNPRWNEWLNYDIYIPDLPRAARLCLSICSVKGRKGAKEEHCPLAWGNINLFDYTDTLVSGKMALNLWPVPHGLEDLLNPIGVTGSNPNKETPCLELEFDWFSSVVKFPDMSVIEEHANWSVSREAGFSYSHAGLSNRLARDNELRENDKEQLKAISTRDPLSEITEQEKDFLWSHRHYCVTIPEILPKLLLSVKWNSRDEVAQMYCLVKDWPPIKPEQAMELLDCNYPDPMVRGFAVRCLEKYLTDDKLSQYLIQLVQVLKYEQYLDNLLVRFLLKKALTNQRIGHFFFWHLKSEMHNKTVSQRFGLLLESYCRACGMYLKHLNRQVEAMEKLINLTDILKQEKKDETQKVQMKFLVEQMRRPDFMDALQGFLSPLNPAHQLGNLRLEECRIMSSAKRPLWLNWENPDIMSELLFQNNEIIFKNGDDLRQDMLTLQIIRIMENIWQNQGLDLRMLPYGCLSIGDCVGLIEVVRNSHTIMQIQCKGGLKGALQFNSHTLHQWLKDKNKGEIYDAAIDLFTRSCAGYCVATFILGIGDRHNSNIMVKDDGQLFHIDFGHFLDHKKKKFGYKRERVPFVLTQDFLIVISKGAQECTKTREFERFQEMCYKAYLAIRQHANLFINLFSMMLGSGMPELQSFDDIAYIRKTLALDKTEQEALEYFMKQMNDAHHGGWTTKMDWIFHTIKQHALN

Row | SMILES | IC50 [1] | Ki [2] | Ki [3] | IC50 (cells) | Activity (A2058) | Activity (SK-OV-3)
1 | C[C@@H]1COC[C@@H](C)N1c1nc(-c2cnc(N)cc2C(F)(F)F)nc(N2CCOCC2)n1 | 0.435 µM | 0.0889 µM | 0.0645 µM | 0.457 µM |  | 
2 | Nc1cc(C(F)(F)F)c(-c2nc(N3CC4CCC(C3)O4)nc(N3CC4CCC(C3)O4)n2)cn1 | 0.947 µM | 0.731 µM | 0.177 µM | 0.691 µM |  | 
3 | C[C@@H]1COCCN1c1nc(-c2cnc(N)cc2C(F)(F)F)nc(N2CCOCC2)n1 | 0.373 µM | 0.0537 µM | 0.109 µM | 0.41 µM |  | 
4 | Nc1cc(C(F)(F)F)c(-c2nc(N3CCOCC3)nc(N3C4CCC3COC4)n2)cn1 | 0.42 µM | 0.0199 µM | 0.0431 µM | 0.156 µM |  | 
5 | C[C@H]1COC[C@H](C)N1c1nc(-c2cnc(N)cc2C(F)(F)F)nc(N2[C@@H](C)COC[C@@H]2C)n1 | 0.61 µM | 0.037 µM | 0.265 µM | 0.531 µM |  | 
6 | C[C@H]1COCCN1c1nc(-c2cnc(N)cc2C(F)(F)F)nc(N2CCOC[C@@H]2C)n1 | 0.248 µM | 0.0068 µM | 0.137 µM | 0.283 µM |  | 
7 | Nc1cc(C(F)(F)F)c(-c2nc(N3CCOCC3)nc(N3CCOCC3)n2)cn1 |  |  |  |  | Active | Active
8 | C[C@@H]1COC[C@H](C)N1c1nc(-c2cnc(N)cc2C(F)(F)F)nc(N2[C@H](C)COC[C@@H]2C)n1 | 0.567 µM | 0.0314 µM | 0.0396 µM | 0.437 µM |  | 

Further lines, with some results ahead:

Row | IC50 [1] | Ki [2] | Ki [3] | IC50 (cells) | SMILES | Activity (A2058) | Activity (SK-OV-3)
9 | 0.0324 µM |  | 0.0106 µM | 0.0639 µM | C[C@H]1COCCN1c1nc(-c2cnc(N)nc2C(F)F)nc(N2CCOCC2)n1 |  | 
10 | 0.146 µM |  | 0.01 µM | 0.125 µM | C[C@H]1COCCN1c1nc(-c2cnc(N)cc2C(F)F)cc(N2CCOCC2)n1 |  | 
11 | 0.122 µM | 0.0274 µM | 0.0193 µM | 0.135 µM | C[C@@H]1COC[C@H](C)N1c1nc(-c2cnc(N)cc2C(F)(F)F)nc(N2CCOCC2)n1 |  | 
12 | 0.196 µM | 0.0083 µM | 0.0255 µM | 0.0898 µM | C[C@H]1COCCN1c1nc(-c2cnc(N)cc2C(F)(F)F)nc(N2CCOCC2)n1 |  | 
